Test results as given in patent publication US20240148821A1, “PHARMACEUTICAL USE OF CYCLIC PEPTIDE COMPOUND” (CHUGAI SEIYAKU KABUSHIKI KAISHA, priority 2021, published 2024).
Numbered stars: 1 amine (or outer) side, 2 acyl side, 3 side chain; on linkers, the order of the positions; unused ones are H or OH. Bridge positions count the residues as written; N and C are the ends. Square brackets hold non-standard residues; d marks the D form. Peptide text beside a SMILES is read from it. * marks the point of attachment. hPhe(3-Cl-4-CF3) = N[C@@H](CCc1ccc(C(F)(F)F)c(Cl)c1)C(=O)O; hPhe(3-F,4-CF3) = N[C@@H](CCc1ccc(C(F)(F)F)c(F)c1)C(=O)O; NEtPhe(4-CF3) = CCN[C@@H](Cc1ccc(C(F)(F)F)cc1)C(=O)O; NMePhe(4-CF3) = CN[C@@H](Cc1ccc(C(F)(F)F)cc1)C(=O)O; 3Oxa8azabicyclo(3.2.1)octane = C1CC2COCC1N2*; NMePhe(4-Me) = CN[C@@H](Cc1ccc(C)cc1)C(=O)O; hPhe(4-Cl) = N[C@@H](CCc1ccc(Cl)cc1)C(=O)O; NMedβ3hAla = C[C@H](CC(=O)[*:2])N(C)[*:1]; NMeGly(cPent) = CN[C@H](C(=O)O)C1CCCC1; NMeCha = CN[C@@H](CC1CCCCC1)C(=O)O; Hyp = O=C(O)[C@@H]1C[C@@H](O)CN1; NMeD = CN[C@@H](CC(=O)O)C(=O)O; NMeL = CN[C@@H](CC(C)C)C(=O)O; NMeV = CN[C@H](C(=O)O)C(C)C; NMeA = CN[C@@H](C)C(=O)O; Piperidide = C1CCN(*)CC1; Ac5c = NC1(C(=O)O)CCCC1; Aze = O=C(O)[C@@H]1CCN1; Sar = CNCC(=O)O

Key:
[1] = biological target: protein-protein interaction between Kras and SOS1 (biotin-tagged human Kras loaded with GDP, His-tagged human SOS1) (Homo sapiens (Human), UniProt P01116, G12D); assay: Protein-protein interaction inhibition between Kras and SOS1 (KrasG12D-SOS PPI) using AlphaScreen; assay type: biochemical; conditions: AlphaScreen; biotin-tagged human Kras loaded with GDP, His-tagged human SOS1; read-out: KRAS G12D-SOS PPI IC50;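 also: kras produced in E. coli, Ni-coupled donor beads and streptavidin acceptor beads, excitation 680 nm with emission detected at 520–620 nm via singlet oxygen transfer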
[2] = test system: Human pancreatic cancer cell line AsPC-1 (G12D mutation Kras); assay: AsPC-1 cell growth inhibition (AsPC-1 CGI); assay type: cell-based; conditions: read-out: AsPC-1 cell growth inhibition, 50% growth inhibitory concentration (IC50 value); 96 hours, CellTiter-Glo, values classified in ranges
Procedure: Test compounds were serially dilated with dimethyl sulfoxide, and 200 nL was then dispensed to a U-bottom 96-well plate using Labcyte Echo. […] The cell suspension was dispensed to a. plate containing a test compound at 100 μL per well and incubated at 37° C. in a 5% carbon dioxide gas incubator. 96 hours later, 80 μL of CellTiter-Glo (Promega) was added to each well and fluorescence was measured.

## CC[C@H](C)[C@@H]1NC(=O)[C@H](CC(C)C)N(C)C(=O)C[C@@H](C(=O)N2C3CCC2COC3)NC(=O)[C@H](C(C)C)N(C)C(=O)C2(CCCC2)NC(=O)[C@@H]2CCCN2C(=O)[C@H](CCc2ccc(C(F)(F)F)c(Cl)c2)NC(=O)CN(C)C(=O)[C@H](CC2CCCCC2)N(C)C(=O)[C@@H]2CCN2C(=O)[C@H](C)N(C)C1=O [Compound 1214] ([NMeL]I[NMeA][Aze][NMeCha][Sar][hPhe(3-Cl-4-CF3)]P[Ac5c][NMeV]D-{3Oxa8azabicyclo(3.2.1)octane}; lactam N-11)
[1]
  IC50: 77 nM
[2]
  IC50: > 500 nM

## CC[C@H](C)[C@@H]1NC(=O)[C@H](CC(C)C)N(C)C(=O)C[C@@H](C(=O)N(C)C)N(C)C(=O)[C@H](C2CCCC2)N(C)C(=O)C2(CCCC2)NC(=O)[C@@H]2CCCN2C(=O)[C@H](CCc2ccc(C(F)(F)F)c(F)c2)NC(=O)CN(C)C(=O)[C@H](Cc2ccc(C)cc2)N(C)C(=O)[C@@H]2CCN2C(=O)[C@H](C)N(C)C1=O [Compound 16] ([NMeL]I[NMeA][Aze][NMePhe(4-Me)][Sar][hPhe(3-F,4-CF3)]P[Ac5c][NMeGly(cPent)][NMeD]-NMe2; lactam N-11)
[1]
  IC50: 0.7 nM
[2]
  IC50: ≤ 20 nM

## CC[C@H](C)[C@@H]1NC(=O)[C@H](CC(C)C)N(C)C(=O)C[C@@H](C)N(C)C(=O)[C@H](C2CCCC2)N(C)C(=O)C2(CCCC2)NC(=O)[C@@H]2CCCN2C(=O)[C@H](CCc2ccc(C(F)(F)F)c(F)c2)NC(=O)CN(C)C(=O)[C@H](Cc2ccc(C)cc2)N(C)C(=O)[C@@H]2CCN2C(=O)[C@H](C)N(C)C1=O [Compound 481] (cyclo([Ac5c][NMeGly(cPent)][NMedβ3hAla][NMeL]I[NMeA][Aze][NMePhe(4-Me)][Sar][hPhe(3-F,4-CF3)]P))
[1]
  IC50: 2 nM
[2]
  IC50: ≤ 20 nM

## CC[C@H](C)[C@@H]1NC(=O)[C@H](CC(C)C)N(C)C(=O)C[C@@H](C(=O)N(C)C)N(C)C(=O)[C@H](C2CCCC2)N(C)C(=O)C2(CCCC2)NC(=O)[C@@H]2CCCN2C(=O)[C@H](CCc2ccc(C(F)(F)F)c(F)c2)NC(=O)CN(C)C(=O)[C@H](C2CCCC2)N(C)C(=O)[C@@H]2CCN2C(=O)[C@H](C)N(C)C1=O [Compound 134] ([NMeL]I[NMeA][Aze][NMeGly(cPent)][Sar][hPhe(3-F,4-CF3)]P[Ac5c][NMeGly(cPent)][NMeD]-NMe2; lactam N-11)
[1]
  IC50: 0.61 nM
[2]
  IC50: ≤ 20 nM

## CC[C@H](C)[C@@H]1NC(=O)[C@H](C)N(C)C(=O)C[C@@H](C(=O)N2CCCCC2)N(C)C(=O)[C@H](C(C)C)N(C)C(=O)C2(CCCC2)NC(=O)[C@@H]2CCCN2C(=O)[C@H](CCc2ccc(Cl)cc2)NC(=O)CN(C)C(=O)[C@H](CC2CCCCC2)N(C)C(=O)[C@@H]2CCN2C(=O)[C@H](C)N(C)C1=O [Compound 903] ([NMeA]I[NMeA][Aze][NMeCha][Sar][hPhe(4-Cl)]P[Ac5c][NMeV][NMeD]-Piperidide; lactam N-11)
[1]
  IC50: 24 nM
[2]
  IC50: > 500 nM

## CC[C@H](C)[C@@H]1NC(=O)[C@H](CC(C)C)N(C)C(=O)C[C@@H](C(=O)N2CCCCC2)N(C)C(=O)[C@H](C(C)C)N(C)C(=O)C2(CCCC2)NC(=O)[C@H](C)NC(=O)[C@H](CCc2ccc(C(F)(F)F)c(Cl)c2)NC(=O)CN(C)C(=O)[C@H](CC2CCCCC2)N(C)C(=O)CN(C)C(=O)CN(C)C1=O [Compound 156] ([NMeL]I[Sar][Sar][NMeCha][Sar][hPhe(3-Cl-4-CF3)]A[Ac5c][NMeV][NMeD]-Piperidide; lactam N-11)
[1]
  IC50: 0.98 nM
[2]
  IC50: > 500 nM

## CC[C@H](C)[C@@H]1NC(=O)[C@H](CC(C)C)N(C)C(=O)C[C@@H](C)N(C)C(=O)[C@H](C2CCCC2)N(C)C(=O)C2(CCCC2)NC(=O)[C@@H]2CCCN2C(=O)[C@H](CCc2ccc(C(F)(F)F)c(Cl)c2)NC(=O)CN(C)C(=O)[C@H](Cc2ccc(C(F)(F)F)cc2)N(C)C(=O)[C@@H]2CCN2C(=O)[C@H](C)N(C)C1=O [Compound 587] (cyclo([Ac5c][NMeGly(cPent)][NMedβ3hAla][NMeL]I[NMeA][Aze][NMePhe(4-CF3)][Sar][hPhe(3-Cl-4-CF3)]P))
[1]
  IC50: 1.2 nM
[2]
  IC50: ≤ 20 nM

## CCO[C@@H]1C[C@H]2C(=O)NC3(CCCC3)C(=O)N(C)[C@@H](C3CCCC3)C(=O)N(C)[C@H](C)CC(=O)N(C)[C@@H](CC(C)C)C(=O)N[C@@H]([C@@H](C)CC)C(=O)N(C)[C@@H](C)C(=O)N3CC[C@H]3C(=O)N(CC)[C@@H](Cc3ccc(C(F)(F)F)cc3)C(=O)N(C)CC(=O)N[C@@H](CCc3ccc(C(F)(F)F)c(Cl)c3)C(=O)N2C1 [Compound 816] (cyclo([Ac5c][NMeGly(cPent)][NMedβ3hAla][NMeL]I[NMeA][Aze][NEtPhe(4-CF3)][Sar][hPhe(3-Cl-4-CF3)][Hyp](Et)))
[1]
  IC50: 3.9 nM
[2]
  IC50: ≤ 20 nM
